Target: recombinant human AKR1C3 (Homo sapiens (Human), UniProt P42330)
Assay: AKR1C3-inhibitory activity assay (Coumberone to Coumberol fluorescence)
Format: biochemical
Details: recombinant human AKR1C3, 15 min pre-incubation, 10 μM NADPH, 0.3 μM Coumberone
Description: The AKR1C3-inhibitory activity of the substances of the present invention was measured in the AKR1C3 assay described in the paragraphs below.
Essentially, the enzyme activity is measured by quantification of the generation of Coumberol from Coumberone (Halim et al. J. AM. CHEM. SOC. 2008, 130:14123-14128 and Yee et al. Proc. Natl. Acad. Sci. USA 2006, 103:13304-13309). In this test, the increase of the highly fluorescent Coumberol by NADPH—(nicotinamide adenine dinucleotide phosphate)-dependent reduction of the non-fluorescent Coumberone by AKR1C3 was determined.
The enzyme used was recombinant human AKR1C3 (Aldo-keto reductase family 1 member C3; GenBank Accession No. NM_003739). This was expressed in E. coli as GST (glutathione S transferase) fusion protein and purified by glutathione Sepharose affinity chromatography. The GST was removed by digestion with thrombin and subsequent size exclusion chromatography (Dufort, I., Rheault, P., Huang, X F., Soucy, P., and Luu-The, V., Endocrinology 140, 568-574 (1999)).
For the assay, 50 nl of a 100-fold concentrated solution of the test substance in DMSO were pipetted into a black low-volume 384-well microtiter plate (Greiner Bio-One, Frickenhausen, Germany), 2.5 μl of a solution of AKR1C3 in assay buffer [50 mM potassium phosphate buffer pH 7, 1 mM DTT, 0.0022% (w/v) Pluronic F-127, 0.01% BSA (w/v) and protease inhibitor cocktail (Complete, EDTA-free Protease Inhibitor Cocktail from Roche)] were added and the mixture was incubated for 15 min to allow pre-binding of the substances to the enzyme prior to the enzyme reaction. The enzyme reaction was then started by addition of 2.5 μl of a solution of NADPH (20 μM→final concentration in 5 μl of assay volume is 10 μM) and Coumberone (0.6 μM→final concentration in 5 μl of assay volume is 0.3 μM) in assay buffer, and the resulting mixture was incubated at 22° C. for the reaction time of typically 90 min. The concentration of the AKR1C3 and the reaction time was adapted to the respective activity of the enzyme preparation and adjusted such that the assay was carried out in the linear range. Typical AKR1C3 concentrations were in the region of 1 nM. The reaction was stopped by addition of 2.5 μl of a stop solution consisting of 3 μM EM-1404 as inhibitor (U.S. Pat. No. 6,541,463) in 50 mM HEPES pH7.5 (3 μM EM-1404→final concentration in 7.5 μl of assay volume is 1 μM). The fluorescence of the Coumberole was then measured at 520 nm (excitation at 380 nm) using a suitable measuring instrument (Pherastar from BMG Labtechnologies). The intensity of the fluorescence was used as a measure of the amount of Coumberole formed and thus of the enzyme activity of AKR1C3. The data were normalized (enzyme reaction without inhibitor=0% inhibition; all other assay components, but no enzyme=100% inhibition).

Chain of recombinant human AKR1C3 (P42330 whole entry): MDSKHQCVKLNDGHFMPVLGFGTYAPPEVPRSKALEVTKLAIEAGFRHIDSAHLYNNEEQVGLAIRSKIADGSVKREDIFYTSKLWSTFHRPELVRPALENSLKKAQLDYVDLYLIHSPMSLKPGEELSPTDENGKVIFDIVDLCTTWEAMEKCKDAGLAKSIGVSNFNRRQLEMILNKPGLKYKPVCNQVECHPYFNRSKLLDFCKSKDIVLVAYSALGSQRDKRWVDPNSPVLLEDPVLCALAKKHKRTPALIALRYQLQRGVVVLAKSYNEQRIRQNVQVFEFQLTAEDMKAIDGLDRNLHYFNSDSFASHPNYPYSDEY

| Compound | IC50 |
| --- | --- |
| O=C(c1cnn[nH]1)N1CC2CCC(C1)N2S(=O)(=O)c1cccc(OC(F)(F)F)c1 [Example 33, 1H-1,2,3-triazol-5-yl[8-{[3-(trifluoromethoxy)phenyl]sulfonyl}-3,8-diazabicyclo[3.2.1]oct-3-yl]methanone] | 1.8 nM |
| O=C(c1cnn[nH]1)N1CC2CCC(C1)N2S(=O)(=O)c1cc(Cl)ccc1C(F)(F)F [Example 34, [8-{[5-chloro-2-(trifluoromethyl)phenyl]sulfonyl}-3,8-diazabicyclo[3.2.1]oct-3-yl](1H-1,2,3-triazol-5-yl)methanone] | 1.9 nM |
| N#Cc1ccccc1S(=O)(=O)N1C2CCC1CN(C(=O)c1cnn[nH]1)C2 [Example 35, 2-{[3-(1H-1,2,3-triazol-5-ylcarbonyl)-3,8-diazabicyclo[3.2.1]oct-8-yl]sulfonyl}benzonitrile] | 6 nM |
| O=C(c1cnn[nH]1)N1CC2CCC(C1)N2S(=O)(=O)c1ccc(C(F)(F)F)cc1 [Example 36, 1H-1,2,3-triazol-5-yl[8-{[4-(trifluoromethyl)phenyl]sulfonyl}-3,8-diazabicyclo[3.2.1]oct-3-yl]methanone] | 3.3 nM |
| O=C(c1cnn[nH]1)N1CC2CCC(C1)N2S(=O)(=O)c1ccc(O)cc1 [Example 37, {8-[(4-hydroxyphenyl)sulfonyl]-3,8-diazabicyclo[3.2.1]oct-3-yl}(1H-1,2,3-triazol-5-yl)methanone] | 2.8 nM |
| O=C(c1cnn[nH]1)N1CC2CCC(C1)N2S(=O)(=O)c1ccc(Br)cc1 [Example 38, {8-[(4-bromophenyl)sulfonyl]-3,8-diazabicyclo[3.2.1]oct-3-yl}(1H-1,2,3-triazol-5-yl)methanone] | 1.5 nM |
| O=C(c1cnn[nH]1)N1CC2CCC(C1)N2S(=O)(=O)c1cccc2ccccc12 [Example 39, [8-(naphthalen-1-ylsulfonyl)-3,8-diazabicyclo[3.2.1]oct-3-yl](1H-1,2,3-triazol-5-yl)methanone] | 1.3 nM |
| O=C(c1cnn[nH]1)N1CC2CCC(C1)N2S(=O)(=O)c1cccc2cccnc12 [Example 40, [8-(quinolin-8-ylsulfonyl)-3,8-diazabicyclo[3.2.1]oct-3-yl](1H-1,2,3-triazol-5-yl)methanone] | 3.4 nM |
| O=C(c1cnn[nH]1)N1CC2CCC(C1)N2S(=O)(=O)c1ccc(OC(F)(F)F)cc1 [Example 41, 1H-1,2,3-triazol-5-yl[8-{[4-(trifluoromethoxy)phenyl]sulfonyl}-3,8-diazabicyclo[3.2.1]oct-3-yl]methanone] | 6.5 nM |
| O=C(c1cnn[nH]1)N1CC2CCC(C1)N2S(=O)(=O)c1ccccc1OC(F)(F)F [Example 42, 1H-1,2,3-triazol-5-yl[8-{[2-(trifluoromethoxy)phenyl]sulfonyl}-3,8-diazabicyclo[3.2.1]oct-3-yl]methanone] | 1.1 nM |
| O=C(c1cnn[nH]1)N1CC2CCC(C1)N2S(=O)(=O)c1ccc([N+](=O)[O-])cc1 [Example 43, {8-[(4-nitrophenyl)sulfonyl]-3,8-diazabicyclo[3.2.1]oct-3-yl}(1H-1,2,3-triazol-5-yl)methanone] | 9.1 nM |
| O=C(c1cnn[nH]1)N1CC2CCC(C1)N2S(=O)(=O)c1cccc([N+](=O)[O-])c1 [Example 44, {8-[(3-nitrophenyl)sulfonyl]-3,8-diazabicyclo[3.2.1]oct-3-yl}(1H-1,2,3-triazol-5-yl)methanone] | 1.9 nM |
| Cc1cc(C)c(S(=O)(=O)N2C3CCC2CN(C(=O)c2cnn[nH]2)C3)c(C)c1 [Example 45, 1H-1,2,3-triazol-5-yl{8-[(2,4,6-trimethylphenyl)sulfonyl]-3,8-diazabicyclo[3.2.1]oct-3-yl}methanone] | 1.4 nM |
| O=C(c1cnn[nH]1)N1CC2CCC(C1)N2S(=O)(=O)c1ccccc1[N+](=O)[O-] [Example 46, {8-[(2-nitrophenyl)sulfonyl]-3,8-diazabicyclo[3.2.1]oct-3-yl}(1H-1,2,3-triazol-5-yl)methanone] | 0.9 nM |
| COc1ccc(OC)c(S(=O)(=O)N2C3CCC2CN(C(=O)c2cnn[nH]2)C3)c1 [Example 47, {8-[(2,5-dimethoxyphenyl)sulfonyl]-3,8-diazabicyclo[3.2.1]oct-3-yl}(1H-1,2,3-triazol-5-yl)methanone] | 29.8 nM |
| O=C(c1cnn[nH]1)N1CC2CCC(C1)N2S(=O)(=O)c1ccc(Cl)c(Cl)c1 [Example 48, {8-[(3,4-dichlorophenyl)sulfonyl]-3,8-diazabicyclo[3.2.1]oct-3-yl}(1H-1,2,3-triazol-5-yl)methanone] | 1.1 nM |
| CCc1ccc(S(=O)(=O)N2C3CCC2CN(C(=O)c2cnn[nH]2)C3)cc1 [Example 49, {8-[(4-ethylphenyl)sulfonyl]-3,8-diazabicyclo[3.2.1]oct-3-yl}(1H-1,2,3-triazol-5-yl)methanone] | 1.2 nM |
| O=C(c1cnn[nH]1)N1CC2CCC(C1)N2S(=O)(=O)c1ccc(F)cc1Cl [Example 50, {8-[(2-chloro-4-fluorophenyl)sulfonyl]-3,8-diazabicyclo[3.2.1]oct-3-yl}(1H-1,2,3-triazol-5-yl)methanone] | 0.9 nM |
| Cc1cccc(Cl)c1S(=O)(=O)N1C2CCC1CN(C(=O)c1cnn[nH]1)C2 [Example 51, {8-[(2-chloro-6-methylphenyl)sulfonyl]-3,8-diazabicyclo[3.2.1]oct-3-yl}(1H-1,2,3-triazol-5-yl)methanone] | 0.8 nM |
| O=C(c1cnn[nH]1)N1CC2CC[C@@H](C1)N2S(=O)(=O)c1cccc(Cl)c1Cl [Example 53, {(1S)-8-[(2,3-dichlorophenyl)sulfonyl]-3,8-diazabicyclo[3.2.1]oct-3-yl}(1H-1,2,3-triazol-5-yl)methanone] | 0.8 nM |
| O=C(c1cnn[nH]1)N1CC2CCC(C1)N2S(=O)(=O)c1cccc2nsnc12 [Example 54, [8-(2,1,3-benzothiadiazol-4-ylsulfonyl)-3,8-diazabicyclo[3.2.1]oct-3-yl](1H-1,2,3-triazol-5-yl)methanone] | 1.2 nM |
| O=C(c1cnn[nH]1)N1CC2CCC(C1)N2S(=O)(=O)c1cccc2nonc12 [Example 55, [8-(2,1,3-benzoxadiazol-4-ylsulfonyl)-3,8-diazabicyclo[3.2.1]oct-3-yl](1H-1,2,3-triazol-5-yl)methanone] | 2.7 nM |
| O=C(c1cnn[nH]1)N1CC2CCC(C1)N2S(=O)(=O)c1c(Cl)cc(Cl)cc1Cl [Example 56, 1H-1,2,3-triazol-5-yl{8-[(2,4,6-trichlorophenyl)sulfonyl]-3,8-diazabicyclo[3.2.1]oct-3-yl}methanone] | 1.4 nM |
| COc1ccc(Cl)cc1S(=O)(=O)N1C2CCC1CN(C(=O)c1cnn[nH]1)C2 [Example 57, {8-[(5-chloro-2-methoxyphenyl)sulfonyl]-3,8-diazabicyclo[3.2.1]oct-3-yl}(1H-1,2,3-triazol-5-yl)methanone] | 9.7 nM |
| O=C(c1cnn[nH]1)N1CC2CCC(C1)N2S(=O)(=O)c1ccc2nsnc2c1 [Example 58, [8-(2,1,3-benzothiadiazol-5-ylsulfonyl)-3,8-diazabicyclo[3.2.1]oct-3-yl](1H-1,2,3-triazol-5-yl)methanone] | 1.2 nM |
| O=C(c1cnn[nH]1)N1CC2CCC(C1)N2S(=O)(=O)c1ccc(F)c(F)c1F [Example 59, 1H-1,2,3-triazol-5-yl{8-[(2,3,4-trifluorophenyl)sulfonyl]-3,8-diazabicyclo[3.2.1]oct-3-yl}methanone] | 2.2 nM |
| N#Cc1cc(S(=O)(=O)N2C3CCC2CN(C(=O)c2cnn[nH]2)C3)ccc1F [Example 60, 2-fluoro-5-{[3-(1H-1,2,3-triazol-5-ylcarbonyl)-3,8-diazabicyclo[3.2.1]oct-8-yl]sulfonyl}benzonitrile] | 28.4 nM |
| O=C(c1cnn[nH]1)N1CC2CCC(C1)N2S(=O)(=O)c1cc(Cl)ccc1F [Example 61, {8-[(5-chloro-2-fluorophenyl)sulfonyl]-3,8-diazabicyclo[3.2.1]oct-3-yl}(1H-1,2,3-triazol-5-yl)methanone] | 1.5 nM |
| O=C(c1cnn[nH]1)N1CC2CCC(C1)N2S(=O)(=O)c1cc(F)c(F)cc1F [Example 62, 1H-1,2,3-triazol-5-yl{8-[(2,4,5-trifluorophenyl)sulfonyl]-3,8-diazabicyclo[3.2.1]oct-3-yl}methanone] | 2.8 nM |

— US10167293B2, “[8-(phenylsulfonyl)-3,8-diazabicyclo[3.2.1]oct-3-yl](1H-1,2,3-triazol-4-yl)methanones” (BAYER PHARMA AKTIENGESELLSCHAFT, priority 2016, dated 2019)
